Assay results: patent US20060025430A1, “Novel irreversible inhibitors of epidermal growth factor receptor tyrosine kinase and uses thereof for therapy and diagnosis” (priority 2003, published 2006)

Experiment: Challenge reaction with reduced glutathione (HPLC conversion to conjugates)
Type: physicochemical
Protocol: Standard solutions were prepared by dissolving compound 5, Compound 6 and {4-[(3,4-dichloro-6-fluorophenyl)amino]quinazol ine-6-yl}acrylamide (0.0146 mmol) in 1.75 ml of THF: MeOH (1:2) and glutathione (18 mg, 0.0586 mmol) in 0.5 ml of water. A 300 μL aliquot of the quinazoline standard solution (2.5 μmol) was diluted with 689 μL of THF:MeOH:H2O (1:2:1), after which 11 μL (1.25 μmol) of glutathione solution and 5.22 μL (30 μmol) of N,N′-diisopropylethylamine were added. Conversions of the quinazolines and formation of conjugates at different time points were measured by HPLC using RP (3.9×300 mm) column (mobile phase of acetonirile and acetate buffer 0.1 M (2:3) at a flow rate of 1 ml/min was used herein). The glutathione conjugates were further detected by MS.
As discussed hereinabove, EGFR blockade by irreversible inhibitors is due to the nucleophilic attack of the sulfhydryl group of Cys-773 at the receptor's ATP binding pocket on the reactive chemical group of the EGFR targeted inhibitor. In order to evaluate the chemical reactivity of the novel irreversibly EGFR inhibitors decribed herein, the degree of reactivity of the inhibitors towards the sulfhydryl group of reduced glutathione (GSH) as a nucleophile was tested. Thus, Compound 5, Compound 6 and {4-[(3,4-dichloro-6-fluorophenyl)amino]quinazoline-6-yl}acrylamide were dissolved in THF: MeOH: H2O (1:2:1), and were reacted at room temperature with half an equivalent of reduced glutathione in the presence of 12 equivalents of N,N-diisopropylethylamine. Identical aliquots of the reaction mixtures were taken at various time points and injected into reversed-phase HPLC in order to determine the conversion-rate of the various compounds into glutathione-conjugates. The characteristics of the products were determined using MS.
A study of the reaction rate as a function of the temperature was also performed. Thus, the reaction ws performed at various temperatures ranging from 0° C. and 60° C. The following activation parameters were generated: For {4-[(3,4-dichloro-6-fluorophenyl)amino]quinazoline-6-yl}acrylamide: Ea=5.24 kCalmol^−1, ΔH^#25° C.=4.64 kCalmol^−1 and ΔS^#25° C.=−61.24 Calmol^−1K^−1. For compound 5: Ea=11.4 kCalmol^−1, ΔH^#25° C.=10.80 kCalmol^−1 and ΔS^#25° C.=−41.29 Calmol^−1K^−1.
The reaction rate was calculated using the following rate equation: [formula] kobs=Ae^−Ea/RT

## O=C(CCl)Nc1ccc2ncnc(Nc3cc(Cl)c(Cl)cc3F)c2c1 [Compound 5, N-{4-[(4,5-Dichloro-2-fluoro-phenyl)amino]-quinazolin-6-yl}-2-chloroacetamide]
25° C.
  ΔH^# 25° C. of reaction with reduced glutathione: 10.80 kCalmol^−1
  ΔS^# 25° C. of reaction with reduced glutathione: −41.29 Calmol^−1K^−1
Temperatures from 0° C. to 60° C.
  activation energy Ea of reaction with reduced glutathione: 11.4 kCalmol^−1
